Data on 48 molecules can be found in ChEMBL document CHEMBL1121445, “Structure-activity analyzed by pattern recognition: the asymmetric case” (J Med Chem, 1980).

The source made the active and inactive calls. No cut-off for these calls is given here.

A short description of series [1]: Partition coefficient (logP). The class given is physicochemical. The settings on record: octanol/water.
The test system of series [2] is Plasmodium berghei. The experiment in a line: Antimalarial activity against Plasmodium berghei. Format: functional, organism-based.
Series [3] concerns Plasmodium berghei. The experiment in a line: Antimalarial activity against Plasmodium berghei; Active. Format: functional, organism-based.

Regarding `COc1ccc(/N=C2/C(N)=CC(=O)c3ncccc32)cc1`, the logP in series [1] (read-out: logP) was determined as 1.5. For the same molecule, the Activity entry in the series on Plasmodium berghei [2] was “Not toxic”.
On the same counts, the results for `NC1=CC(=O)c2ncccc2/C1=N\c1ccc(Cl)cc1` are 2.5 and “Not toxic”.
For the molecule `CCCCCCCCCCCCSC1=C(O)C(=O)c2cccnc2C1=O`, in the series with Plasmodium berghei [3], the outcome was Active. Moreover, in series [1] (read-out: logP), the logP worked out at 6.62.
With `O=C1C=C(Nc2ccc(Cl)cc2)/C(=N/c2ccc(Cl)cc2)c2cccnc21`, in series [1] (read-out: logP), the log partition coefficient (logP) came to 5.6. Further, the Activity entry in the series with Plasmodium berghei [2] was “Not toxic”.
In the same order, the values of `Cc1ccc(/N=C2/C(N)=CC(=O)c3ncccc32)cc1C` are 2.5 and “Not toxic”.
On the same counts, the results for `CCCCCCCCCCC1=C(O)C(=O)c2ccc(OC)cc2C1=O` are 6.47 and “Not toxic”.
On the same counts, the results for `O=C1C(=O)c2cc(Cl)ccc2C(O)=C1CCCCC1CCCCC1` are 6.69 and “Not toxic”.
For the molecule `Cc1ccc2c(c1)C(=O)C(O)=C(CCC(C)C)C2=O`, the outcome with Plasmodium berghei [3] was Active. The logP in series [1] (read-out: logP) came to 4.26.
On the same counts, the results for `Cc1ccc2c(c1)C(=O)C(CCC(C)C)=C(O)C2=O` are “Active” and 4.26.
In the case of `CC1=C(CCC(C)C)C(=O)c2ccccc2C1=O`, in series [1] (read-out: logP), the logP was found to be 4.69. In the series on Plasmodium berghei [2], the Activity result was “Not toxic”.
As for `O=C1C=C(NCCCCC2CCCCC2)c2ccccc2C1=O`, the outcome with Plasmodium berghei [3] was Active. Besides, the logP in series [1] (read-out: logP) was found to be 6.11.
On the same counts, the results for `CCN(CC)C1=CC(=O)C(=O)c2ccccc21` are “Active” and 3.28.
On the same counts, the results for `CCN(CC)CCCC/N=C1/C=C(O)C(=O)c2ccccc21` are “Active” and 3.79.
As to `CCCC/N=C1\C=C(O)c2ncccc2C1=N`, in series [1] (read-out: logP), the logP amounted to 1.5. Also, the Activity result in the series with Plasmodium berghei [2] was “Not toxic”.
On the same counts, the results for `CC(C)CCC1=C(N)C(=O)c2ccccc2C1=O` are 4.37 and “Not toxic”.
Turning to `O=C1C(=O)c2ncccc2C(O)=C1CCCCCCCCC1CCCCC1`, the outcome in the series on Plasmodium berghei [3] was Active. Further, the logP in series [1] (read-out: logP) worked out at 6.5.
On the same counts, the results for `CN(C)CCCN(C1=CC(=O)C(=O)c2ccccc21)c1ccccc1` are “Active” and 3.4.
In the case of `O=C1C(=O)c2c(ccc3ccccc23)C(O)=C1CCCC1CCCCC1`, the log partition coefficient (logP) in series [1] (read-out: logP) was 6.63. Also, the Activity entry in the series with Plasmodium berghei [2] was “Not toxic”.
In the same order, the values of `CCCCCOC1=CC(=O)C(=O)c2ccccc21` are 3.38 and “Not toxic”.
In the same order, the values of `CC(C)CCC1=CC(=O)c2ccccc2C1=O` are 4 and “Not toxic”.
As to `COc1ccc(NC2=CC(=O)C(=O)c3ccccc32)cc1`, the outcome in the series with Plasmodium berghei [3] was Active. The logP in series [1] (read-out: logP) stood at 1.9.
On the same counts, the results for `CCCCCN(CCCCC)CCC/N=C1/C=C(O)C(=O)c2ccccc21` are “Active” and 5.47.
Turning to `CCOC1=CC(=O)C(=O)c2ccccc21`, the logP in series [1] (read-out: logP) amounted to 1.2. Besides, in the series on Plasmodium berghei [2], the Activity result is “Not toxic”.
Consider `O=C1C(=O)C2=C(CCCC2)C(O)=C1CCCC1CCCCC1`, for which, in series [1] (read-out: logP), the logP was determined as 5.93. For the same molecule, the Activity entry in the series with Plasmodium berghei [2] is “Not toxic”.
In the same order, the values of `CCOC(=O)c1ccc(/N=C2/C(Nc3ccc(C(=O)OCC)cc3)=CC(=O)c3ncccc32)cc1` are 4.5 and “Not toxic”.
With `CCCCCCCCCCCCCCSC1=C(O)C(=O)c2cccnc2C1=O`, the outcome in the series with Plasmodium berghei [3] was Active. The logP in series [1] (read-out: logP) is 8.62.
`Cc1ccc(/N=C2/C(Nc3ccc(C)c(C)c3)=CC(=O)c3ncccc32)cc1C`: in series [1] (read-out: logP), the logP was 5.6. Also, the Activity entry in the series on Plasmodium berghei [2] was “Not toxic”.
For the molecule `Cc1ccc(NC2=C(Cl)C(=O)C(=O)c3cccnc32)cc1`, the logP in series [1] (read-out: logP) is 1.5. The Activity entry with Plasmodium berghei [2] is “Not toxic”.
As to `O=C1C(=O)c2ccccc2C(O)=C1CCCC1CCCCC1`, the outcome with Plasmodium berghei [3] was Active. Moreover, the logP in series [1] (read-out: logP) turned out to be 5.31.
Consider `CC1=C(O)C(=O)c2ccccc2C1=O`, for which the logP in series [1] (read-out: logP) worked out at 0.2. In the series with Plasmodium berghei [2], the Activity result is “Not toxic”.
`CCCCCCCCCCCC1=C(O)C(=O)C=C(O)C1=O` [EMBELIN]: the logP in series [1] (read-out: logP) worked out at 5.04. For the same molecule, in the series on Plasmodium berghei [2], the Activity result was “Not toxic”.
In the same order, the values of `CC(C)CCC1=C(Cl)C(=O)c2ccccc2C1=O` are 4.64 and “Not toxic”.
Take `CCCCCCCCCCCCCCCC1=C(O)C(=O)c2cccnc2C1=O`: the result in the series with Plasmodium berghei [3] was Active. In addition, the logP in series [1] (read-out: logP) came to 7.5.
With `CCCCCCCCCCCCCCCC/N=C1\C=C(O)c2ncccc2C1=O`, the logP in series [1] (read-out: logP) was 7.8. The Activity entry in the series with Plasmodium berghei [2] is “Not toxic”.
On the same counts, the results for `NC1=CC(=O)c2ncccc2/C1=N\c1ccccc1` are 1.5 and “Not toxic”.
As to `COc1ccc(/N=C2/C(Nc3ccc(OC)cc3)=CC(=O)c3ncccc32)cc1`, the logP in series [1] (read-out: logP) is 4.5. The Activity entry in the series on Plasmodium berghei [2] was “Not toxic”.
On the same counts, the results for `O=C(CCC1CCCCC1)C1=CC(=O)c2ccccc2C1=O` are 4.1 and “Not toxic”.
Regarding `CCCCCC/N=C1/C=C(O)C(=O)c2ccc(C)nc21`, the log partition coefficient (logP) in series [1] (read-out: logP) amounted to 1.5. In addition, in the series on Plasmodium berghei [2], the Activity entry is “Not toxic”.
In the same order, the values of `NC1=CC(=O)C(=O)c2cccnc21` are 1.2 and “Not toxic”.
In the same order, the values of `O=C1C(=O)c2ccc(O)cc2C(O)=C1CCCC1CCCCC1` are 4.64 and “Not toxic”.
In the case of `CCCCCCCCCC1=C(O)C(=O)c2sccc2C1=O`, the logP in series [1] (read-out: logP) came out at 5.06. Further, the Activity result with Plasmodium berghei [2] is “Not toxic”.
In the same order, the values of `O=C1C(=O)c2cccnc2C(Nc2ccccc2)=C1Cl` are 1.3 and “Not toxic”.
For the molecule `CCCCCCCCCCCCCCCCCCSC1=C(O)C(=O)c2cccnc2C1=O`, the outcome in the series with Plasmodium berghei [3] was Active. This molecule had a logP in series [1] of 9.62.
As for `CC(C)CCC1=C(O)C(=O)c2ccccc2C1=O`, the outcome with Plasmodium berghei [3] was Active. The logP in series [1] (read-out: logP) turned out to be 3.87.
In the case of `CCCCCCCCCCC1=C(O)C(=O)c2cc(OC)ccc2C1=O`, the logP in series [1] (read-out: logP) came to 6.47. The Activity result in the series on Plasmodium berghei [2] was “Not toxic”.
On the same counts, the results for `CCCC(C)COC1=CC(=O)C(=O)c2ccccc21` (stereo unspecified) are 3.38 and “Not toxic”.
On the same counts, the results for `CCCCCCCCCCC1=C(O)C(=O)c2ccc(Br)cc2C1=O` are 7.17 and “Not toxic”.
On to `O=C1C(O)=C(CCCCCCCCC2CCCCC2)C(=O)c2ccccc21` [MENOCTONE], for which, in the series with Plasmodium berghei [3], the result was Active. In series [1] (read-out: logP), the lipophilicity (logP) stood at 7.81.
